Our source for the IC50 values is patent US11795171B2, “Pyrrolotriazinones and imidazotriazinones as ubiquitin-specific protease 7 inhibitors” (Valo Health, Inc., priority 2014, dated 2023).

Some results are limits rather than exact numbers.

Sequence of USP7 (Q93009 208-1102): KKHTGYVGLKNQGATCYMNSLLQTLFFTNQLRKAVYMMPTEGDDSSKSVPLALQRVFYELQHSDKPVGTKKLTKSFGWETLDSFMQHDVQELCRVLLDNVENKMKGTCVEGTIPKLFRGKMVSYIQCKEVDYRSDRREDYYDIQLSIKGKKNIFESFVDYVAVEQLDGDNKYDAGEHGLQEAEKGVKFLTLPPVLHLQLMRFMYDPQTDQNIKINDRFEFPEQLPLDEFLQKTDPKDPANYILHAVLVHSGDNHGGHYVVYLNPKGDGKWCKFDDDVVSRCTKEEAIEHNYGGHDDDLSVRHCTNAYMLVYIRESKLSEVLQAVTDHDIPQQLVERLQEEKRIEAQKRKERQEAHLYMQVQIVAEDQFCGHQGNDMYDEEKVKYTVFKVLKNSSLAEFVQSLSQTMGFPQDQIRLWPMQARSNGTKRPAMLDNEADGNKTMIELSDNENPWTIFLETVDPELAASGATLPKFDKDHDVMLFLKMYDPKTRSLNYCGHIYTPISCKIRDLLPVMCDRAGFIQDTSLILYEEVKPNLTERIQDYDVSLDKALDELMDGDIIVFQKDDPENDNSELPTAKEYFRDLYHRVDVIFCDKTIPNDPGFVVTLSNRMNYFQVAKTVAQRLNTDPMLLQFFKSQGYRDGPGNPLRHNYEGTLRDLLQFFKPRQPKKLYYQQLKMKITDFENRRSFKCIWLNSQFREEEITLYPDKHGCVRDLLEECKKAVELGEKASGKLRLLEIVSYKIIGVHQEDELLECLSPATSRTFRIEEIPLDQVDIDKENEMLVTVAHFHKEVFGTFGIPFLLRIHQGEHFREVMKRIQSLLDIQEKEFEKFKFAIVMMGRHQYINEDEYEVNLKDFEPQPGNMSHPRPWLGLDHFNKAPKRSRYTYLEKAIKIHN

In this assay the target is USP7 (Homo sapiens (Human), UniProt Q93009). The assay can be described thus: USP7 Assay B (Ubitquin-Rhodamine110 Assay). Format: biochemical. As to conditions: Ub-Rh110 substrate 25 nM. On the procedure:
Stock compound solutions were stored at −20° C. as 10 mM in DMSO. […] Prestamped assay plates were allowed to come to room temperature on the day of the assay. For the screen, 100 nL of 2 mM was pre-dispensed for a final screening concentration of 10 μM (DMSO(fc)=0.5%). […] Unless otherwise indicated, all follow-up assays were run on triplecate plates. […] Pre-stamped with compounds were either not preincubated or preincubated with USP7 between 30 to 120 minutes prior to the addition of 10 μL of 2×Ub-Rh110 to compound plates. Plates were incubated stacked for either 23 or 45 minutes at room temperature before fluorescence was read on the Envision (Excitation at 485 nm and Emission at 535 nm; Perkin Elmer) or on the PheraSTAR (Excitation at 485 nm and Emission at 535 nm; BMG Labtech).
Data from USP7 Assays A and B were reported as percent inhibition (inh) compared with control wells based on the following equation: % inh=1−((FLU−AveLow)/(AveHigh−AveLow)) where FLU=measured Fluorescence (See Tables 2 and 3). AveLow=average Fluorescence of no enzyme control (n=16). AveHigh=average Fluorescence of DMSO control (n=16). IC50 values were determined by curve fitting of the standard 4 parameter logistic fitting algorithm included in the Activity Base software package: IDBS XE Designer Model205. Data is fitted using the Levenburg Marquardt algorithm.
For `COc1cc(OC)cc(-c2ccc(C(=O)N3CCC(O)(Cn4cnn5cccc5c4=O)CC3)cc2)c1` [Compound I-44, 3-((1-(3′,5′-dimethoxy-[1,1′-biphenyl]-4-carbonyl)-4-hydroxypiperidin-4-yl)methyl)pyrrolo[2,1-f][1,2,4]triazin-4(3H)-one], the IC50 was greater than 10 µM.

As to `O=C(NCc1ccc(F)cc1)Nc1cc2c(=O)n(CC3(O)CCN(C(=O)C4CC4)CC3)cnn2c1` [Compound I-87, 1-(3-((1-(cyclopropanecarbonyl)-4-hydroxypiperidin-4-yl)methyl)-4-oxo-3,4-dihydropyrrolo[2,1-f][1,2,4]triazin-6-yl)-3-(4-fluorobenzyl)urea], the IC50 was greater than 10 µM.

As to `O=C(c1ccc(-c2ccc3ncnn3c2)cc1)N1CCC(O)(Cn2cnn3cccc3c2=O)CC1` [Compound I-48, 3-((1-(4-([1,2,4]triazolo[1,5-a]pyridin-6-yl)benzoyl)-4-hydroxypiperidin-4-yl)methyl)pyrrolo[2,1-f][1,2,4]triazin-4(3H)-one], the half-inhibitory concentration (IC50) is greater than 10 µM.

For the compound `CC(CC(=O)Nc1cc2c(=O)n(CC3(O)CCN(C(=O)C4CC4)CC3)cnn2c1)c1ccc(Cl)cc1` (stereo not drawn) [Compound I-113, 3-(4-chlorophenyl)-N-(3-((1-(cyclopropanecarbonyl)-4-hydroxypiperidin-4-yl)methyl)-4-oxo-3,4-dihydropyrrolo[2,1-f][1,2,4]triazin-6-yl)butanamide], the IC50 is greater than 10 µM.

`COc1ccc(-c2cccc(C(=O)N3CCC(O)(Cn4cnn5cccc5c4=O)CC3)c2)cc1` [Compound I-8, 3-((4-hydroxy-1-(4′-methoxy-[1,1′-biphenyl]-3-carbonyl)piperidin-4-yl)methyl)pyrrolo[2,1-f][1,2,4]triazin-4(3H)-one] registered a 50% inhibitory concentration (IC50) of 1 to 10 µM.

With `O=C(Nc1cc(F)cc(F)c1)Nc1cc2c(=O)n(CC3(O)CCN(C(=O)C4CC4)CC3)cnn2c1` [Compound I-93, 1-(3-((1-(cyclopropanecarbonyl)-4-hydroxypiperidin-4-yl)methyl)-4-oxo-3,4-dihydropyrrolo[2,1-f][1,2,4]triazin-6-yl)-3-(3,5-difluorophenyl)urea], the IC50 is greater than 10 µM.

`CNC(=O)Nc1cc2c(=O)n(CC3(O)CCN(C(=O)C[C@@H](C)c4ccccc4)CC3)cnn2c1` [Compound I-82, (R)-1-(3-((4-hydroxy-1-(3-phenylbutanoyl)piperidin-4-yl)methyl)-4-oxo-3,4-dihydropyrrolo[2,1-f][1,2,4]triazin-6-yl)-3-methylurea] yielded an IC50 of 0.2 to 1 µM.

`COc1cccc(-c2cccc(C(=O)N3CCC(O)(Cn4cnn5cccc5c4=O)CC3)c2)c1` [Compound I-10, 3-((4-hydroxy-1-(3′-methoxy-[1,1′-biphenyl]-3-carbonyl)piperidin-4-yl)methyl)pyrrolo[2,1-f][1,2,4]triazin-4(3H)-one]: the IC50 was greater than 10 µM.

`O=C(NCc1ccccc1F)Nc1cc2c(=O)n(CC3(O)CCN(C(=O)C4CC4)CC3)cnn2c1` [Compound I-94, 1-(3-((1-(cyclopropanecarbonyl)-4-hydroxypiperidin-4-yl)methyl)-4-oxo-3,4-dihydropyrrolo[2,1-f][1,2,4]triazin-6-yl)-3-(2-fluorobenzyl)urea] displayed an IC50 greater than 10 µM.

With `Cc1ccc(-c2cccc(C(=O)N3CCC(O)(Cn4cnn5cccc5c4=O)CC3)c2)cc1` [Compound I-7, 3-((4-hydroxy-1-(4′-methyl-[1,1′-biphenyl]-3-carbonyl)piperidin-4-yl)methyl)pyrrolo[2,1-f][1,2,4]triazin-4(3H)-one], the IC50 is 1 to 10 µM.

`CC(C)(C#N)c1ccc(C(=O)N2CCC(O)(Cn3cnn4cccc4c3=O)CC2)cc1` [Compound I-31, 2-(4-(4-hydroxy-4-((4-oxopyrrolo[2,1-f][1,2,4]triazin-3(4H)-yl)methyl)piperidine-1-carbonyl)phenyl)-2-methylpropanenitrile]: the IC50 was greater than 10 µM.

As to `O=C(c1ccccc1)c1ccc(C(=O)N2CCC(O)(Cn3cnn4cccc4c3=O)CC2)cc1` [Compound I-71, 3-((1-(4-benzoylbenzoyl)-4-hydroxypiperidin-4-yl)methyl)pyrrolo[2,1-f][1,2,4]triazin-4(3H)-one], the concentration for half-maximal inhibition (IC50) fell in the range of 1 to 10 µM.

`O=C(Nc1ccc2c(c1)CCC2)Nc1cc2c(=O)n(CC3(O)CCN(C(=O)C4CC4)CC3)cnn2c1` [Compound I-90, 1-(3-((1-(cyclopropanecarbonyl)-4-hydroxypiperidin-4-yl)methyl)-4-oxo-3,4-dihydropyrrolo[2,1-f][1,2,4]triazin-6-yl)-3-(2,3-dihydro-1H-inden-5-yl)urea] returned an IC50 greater than 10 µM.

For `O=C(c1cccc(-c2cccc(F)c2)c1)N1CCC(O)(Cn2cnn3cccc3c2=O)CC1` [Compound I-30, 3-((1-(3′-fluoro-[1,1′-biphenyl]-3-carbonyl)-4-hydroxypiperidin-4-yl)methyl)pyrrolo[2,1-f][1,2,4]triazin-4(3H)-one], the IC50 lay in the range of 1 to 10 µM.

`Cc1nnnn1Cc1ccc(C(=O)N2CCC(O)(Cn3cnn4cccc4c3=O)CC2)cc1` [Compound I-66, 3-((4-hydroxy-1-(4-((5-methyl-1H-tetrazol-1-yl)methyl)benzoyl)piperidin-4-yl)methyl)pyrrolo[2,1-f][1,2,4]triazin-4(3H)-one]: the IC50 is greater than 10 µM.

`Cn1c(-c2cccc(C(=O)N3CCC(O)(Cn4cnn5cccc5c4=O)CC3)c2)cc2ccccc21` [Compound I-25, 3-((4-hydroxy-1-(3-(1-methyl-1H-indol-2-yl)benzoyl)piperidin-4-yl)methyl)pyrrolo[2,1-f][1,2,4]triazin-4(3H)-one] showed an IC50 of 0.2 to 1 µM.

On to `O=C(c1cccc(-c2ccsc2)c1)N1CCC(O)(Cn2cnn3cccc3c2=O)CC1` [Compound I-28, 3-((4-hydroxy-1-(3-(thiophen-3-yl)benzoyl)piperidin-4-yl)methyl)pyrrolo[2,1-f][1,2,4]triazin-4(3H)-one], for which the IC50 was greater than 10 µM.

For the compound `CCOc1cccc(-c2ccc(C(=O)N3CCC(O)(Cn4cnn5cccc5c4=O)CC3)cc2)c1` [Compound I-37, 3-((1-(3′-ethoxy-[1,1′-biphenyl]-4-carbonyl)-4-hydroxypiperidin-4-yl)methyl)pyrrolo[2,1-f][1,2,4]triazin-4(3H)-one], the IC50 is greater than 10 µM.

Compound `O=C(COc1ccc(OC(F)(F)F)cc1)Nc1cc2c(=O)n(CC3(O)CCN(C(=O)C4CC4)CC3)cnn2c1` [Compound I-104, N-(3-((1-(cyclopropanecarbonyl)-4-hydroxypiperidin-4-yl)methyl)-4-oxo-3,4-dihydropyrrolo[2,1-f][1,2,4]triazin-6-yl)-2-(4-(trifluoromethoxy)phenoxy)acetamide] had an IC50 greater than 10 µM.

Turning to `O=C(c1cccc(-c2ccc3scnc3c2)c1)N1CCC(O)(Cn2cnn3cccc3c2=O)CC1` [Compound I-23, 3-((1-(3-(benzo[d]thiazol-5-yl)benzoyl)-4-hydroxypiperidin-4-yl)methyl)pyrrolo[2,1-f][1,2,4]triazin-4(3H)-one], the IC50 is 1 to 10 µM.

In turn, `C[C@@H](NC(=O)Nc1cc2c(=O)n(CC3(O)CCN(C(=O)C4CC4)CC3)cnn2c1)c1ccccc1` [Compound I-95, (R)-1-(3-((1-(cyclopropanecarbonyl)-4-hydroxypiperidin-4-yl)methyl)-4-oxo-3,4-dihydropyrrolo[2,1-f][1,2,4]triazin-6-yl)-3-(1-phenylethyl)urea] showed a half-maximal inhibitory concentration (IC50) greater than 10 µM.
